“Also recorded” adds a separate entry of the source. Where two headings read alike, the source gives them in different places.
Columns and labels:
HeLa cells [1] = type: cell-based, human; settings: for Transferrin uptake: 50 μM
[2] = tested on: Baby hamster kidney fibroblasts (BHK) cells; experiment: Acridine orange assay for acidification blockers; type: cell-based
HeLa cells [3] = type: cell-based, human; settings: for Dextran Uptake: 50 μM
EBOV [4] = type: cell-based, Zaire Ebolavirus (Mayinga strain)
EBOV [5] = experiment: organism not typed; type: cell-based, Zaire Ebolavirus (Mayinga strain)
MARV = experiment: microbe, parasite or virus in culture; type: cell-based, Marburgvirus (Musoke strain)
IL-1-Beta = settings: PubChem / MLSMR data; cited from earlier work
EBOV [6] = experiment: microbe, parasite or virus in culture; type: cell-based, Zaire Ebolavirus (Mayinga strain); settings: read-out: Activity in macrophages IC50
NPC1 C-loop = molecular target: T1, NPC1 C-loop (Homo sapiens, UniProt O15118); experiment: NPC1 C-loop binding
T1 construct: C-loop
T1 sequence (O15118 372-620 limits assumed): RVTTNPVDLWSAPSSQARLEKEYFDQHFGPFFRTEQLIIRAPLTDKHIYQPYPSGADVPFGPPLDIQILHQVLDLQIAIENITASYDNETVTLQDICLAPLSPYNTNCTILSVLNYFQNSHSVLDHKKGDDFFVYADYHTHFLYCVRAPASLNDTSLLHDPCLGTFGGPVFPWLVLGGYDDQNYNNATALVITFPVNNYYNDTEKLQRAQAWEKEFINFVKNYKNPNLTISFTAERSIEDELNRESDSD

Cathepsin = Cathepsin cleavage of GP
LAMP1-positive vesicles = type: cell-based, human
EEA1-positive vesicles = type: cell-based, human

## C=C(c1ccc(O)cc1)c1ccc(O)cc1 [MLS000078751]
HeLa cells [1]
  Transferrin uptake: 0
[2]
  Acidification Block: −
HeLa cells [3]
  Dextran Uptake: 0
EBOV [4]
  Surface interaction: −
  Uninfected cell number: +
  decrease in total viral particles bound to cell surface: 53%
  virus particle uptake: reduced particle uptake
EBOV [5]
  Curve Class (EBOV): 1.3
  EBOV (curve class): 1.3
EBOV [5]; read-out: EBOV HeLa IC50
  IC50: 25.6 µM
EBOV [5]; read-out: IC-50 (EBOV)
  IC50: 25.6 µM
MARV
  Curve class (MARV): 1.5
  MARV (Curve class): 1.5
MARV; read-out: IC-50 (MARV)
  IC50: 6.13 µM
MARV; read-out: MARV HeLa IC50
  IC50: 6.1 µM
IL-1-Beta
  secretion of IL-1-Beta: inhibit secretion of IL-1-Beta
EBOV [6]
  IC50: ~25 µM
NPC1 C-loop
  NPC1 C-loop binding: 0
Cathepsin
  Cathepsin clevage: 0

## CC(C)(CS(=O)(=O)[O-])NC(=O)CC[N+](C)(C)CCO [MLS000554255]
HeLa cells [1]
  effect on transferrin uptake: do not inhibit transferrin uptake
  Transferrin uptake: 0
[2]
  Acidification Block: −
HeLa cells [3]
  Dextran Uptake: 0
EBOV [4]
  Surface interaction: 0
  Uninfected cell number: +
  number of cells without virus bound: increased the number of cells without virus bound
EBOV [5]
  Curve Class (EBOV): 1.5
  EBOV (curve class): 1.5
EBOV [5]; read-out: EBOV HeLa IC50
  IC50: 6.8 µM
EBOV [5]; read-out: IC-50 (EBOV)
  IC50: 6.84 µM
LAMP1-positive vesicles
  Effect on LAMP1: −
  reduction of number of VLPs present in LAMP1-positive vesicles: 33%
MARV
  Curve class (MARV): 1.3
  MARV (Curve class): 1.3
MARV; read-out: IC-50 (MARV)
  IC50: 6.39 µM
MARV; read-out: MARV HeLa IC50
  IC50: 6.4 µM
EEA1-positive vesicles
  Effect on EEA1: +
  increase of colocalization of VLPs with EEA1-positive vesicles: 83%
EBOV [6]
  IC50: 6 µM
NPC1 C-loop
  NPC1 C-loop binding: 0
Cathepsin
  Cathepsin clevage: 0

## Cc1cc(N2CCN(C)CC2)nc2ccc(NC(=S)NCCCN3CCc4ccccc4C3)cc12 [MLS000730532]
HeLa cells [1]
  effect on transferrin uptake: impaired uptake of this marker, comparable to chlorpromazine
  Transferrin uptake: −
[2]
  Acidification Block: +
  effect on endosomal acidification: affected endosomal acidification
HeLa cells [3]
  reduction of uptake of fluorescently labeled dextran: ~74%
  Dextran Uptake: −
EBOV [4]
  Surface interaction: 0
  Uninfected cell number: 0
  reduction of number of viral particles inside the cell body: 89%
EBOV [5]; read-out: EBOV HeLa IC50
  IC50: 1.6 µM
EBOV [5]; read-out: IC-50 (EBOV)
  IC50: 1.56 µM
MARV
  Curve class (MARV): 1.3
  MARV (Curve class): 1.3
MARV; read-out: IC-50 (MARV)
  IC50: 1.93 µM
MARV; read-out: MARV HeLa IC50
  IC50: 1.9 µM
IL-1-Beta
  secretion of IL-1-Beta: inhibit secretion of IL-1-Beta
EBOV [6]
  IC50: 9.5 µM
NPC1 C-loop
  NPC1 C-loop binding: 0
Cathepsin
  Cathepsin clevage: 0

## Cc1nn2c(NCCCN(C)C)c3c(nc2c1-c1ccccc1)CCCC3 [MLS000762907]
HeLa cells [1]
  effect on transferrin uptake: inhibited transferrin uptake; also recorded: reduced uptake of transferrin; also recorded: blocked uptake of transferrin
  Transferrin uptake: −
[2]
  Acidification Block: +
HeLa cells [3]
  effect on macropinocytic uptake of dextran: not of dextran; also recorded: did not affect
  Dextran Uptake: 0
EBOV [4]
  Surface interaction: 0
  Uninfected cell number: 0
  virus particle binding to cell surface: did not affect
EBOV [5]
  Curve Class (EBOV): 1.3
  EBOV (curve class): 1.3
EBOV [5]; read-out: EBOV HeLa IC50
  IC50: 3.2 µM
EBOV [5]; read-out: IC-50 (EBOV)
  IC50: 3.19 µM
LAMP1-positive vesicles
  Effect on LAMP1: 0
  VLP colocalization with LAMP1: no effect
MARV
  Curve class (MARV): 1.3
  MARV (Curve class): 1.3
MARV; read-out: IC-50 (MARV)
  IC50: 12.5 µM
MARV; read-out: MARV HeLa IC50
  IC50: 12.5 µM
EEA1-positive vesicles
  Effect on EEA1: 0
  VLP colocalization with EEA1: colocalized with EEA1 positive vesicles normally; also recorded: no effect
EBOV [6]
  IC50: 23.4 µM
NPC1 C-loop
  NPC1 C-loop binding: 0
Cathepsin
  Cathepsin clevage: 0

## CN(C)c1cc(NC(=O)CN2CCCC2)c2ccccc2n1.O=C(O)C(=O)O [MLS001047402]
EBOV [5]
  Curve Class (EBOV): 1.2
EBOV [5]; read-out: IC-50 (EBOV)
  IC50: 5.26 µM
MARV
  Curve class (MARV): 1.2
MARV; read-out: IC-50 (MARV)
  IC50: 25.9 µM

## COc1ccc(C(CNC(=O)c2oc3ccc(OC)cc3c2C)N2CCCC2)cc1 (stereo not drawn) [MLS001150589]
EBOV [5]
  Curve Class (EBOV): 4
MARV
  Curve class (MARV): 1.2
MARV; read-out: IC-50 (MARV)
  IC50: 25.9 µM

## COc1ccccc1CCN1CCCC(CN(C)CC(C)(C)CO)C1 (stereo not drawn) [MLS001162808]
EBOV [5]
  Curve Class (EBOV): 1.3
EBOV [5]; read-out: IC-50 (EBOV)
  IC50: 7.25 µM
MARV
  Curve class (MARV): 1.2
MARV; read-out: IC-50 (MARV)
  IC50: 26.1 µM

## O=C(CCCN1CCc2[nH]c3ccc(F)cc3c2C1)c1ccc(F)cc1 [MLS001173370]
EBOV [5]
  Curve Class (EBOV): 1.3
EBOV [5]; read-out: IC-50 (EBOV)
  IC50: 3.06 µM
MARV; read-out: IC-50 (MARV)
  IC50: 25.1 µM

## O=C(C#Cc1ccccc1)c1ccco1 [MLS001174896]
EBOV [5]; read-out: IC-50 (EBOV)
  IC50: 12.4 µM
MARV; read-out: IC-50 (MARV)
  IC50: 12.2 µM

## CCN(CC)CCNC(=O)c1ccc(NC(=O)c2ccccc2-c2ccc(C(F)(F)F)cc2)cc1 [MLS001175455]
EBOV [5]
  Curve Class (EBOV): 1.6
EBOV [5]; read-out: IC-50 (EBOV)
  IC50: 6.42 µM
MARV
  Curve class (MARV): 1.2
MARV; read-out: IC-50 (MARV)
  IC50: 25.4 µM

## Cc1cccc(C)c1OCC(O)CNC(C)c1ccccc1.Cl (stereo not drawn) [MLS001177927]
EBOV [5]
  Curve Class (EBOV): 1.5
EBOV [5]; read-out: IC-50 (EBOV)
  IC50: 6.42 µM
MARV
  Curve class (MARV): 1.2
MARV; read-out: IC-50 (MARV)
  IC50: 25.8 µM

## Fc1ccc2c(c1)Sc1ccc(Cl)cc1CC2N1CCN(CCC2OCCO2)CC1 (stereo not drawn) [MLS001179272]
EBOV [5]
  Curve Class (EBOV): 1.5
EBOV [5]; read-out: IC-50 (EBOV)
  IC50: 0.691 µM
MARV
  Curve class (MARV): 1.3
MARV; read-out: IC-50 (MARV)
  IC50: 25.4 µM

## COc1ccc2c(c1)CC(N1CCN(C)CC1)c1cc(OC)ccc1S2.O=C(O)/C=C\C(=O)O (stereo not drawn) [MLS001179278]
EBOV [5]
  Curve Class (EBOV): 1.6
EBOV [5]; read-out: IC-50 (EBOV)
  IC50: 6.49 µM
MARV
  Curve class (MARV): 1.2
MARV; read-out: IC-50 (MARV)
  IC50: 12.5 µM

## CCN(CCNCC(O)COc1ccccc1C(C)C)c1cccc(C)c1.O=C(O)C(=O)O (stereo not drawn) [MLS001179997]
EBOV [5]
  Curve Class (EBOV): 1.4
MARV; read-out: IC-50 (MARV)
  IC50: 25.5 µM

## Cc1ccc(C(=O)N/C(=C/c2ccc(-c3ccc([N+](=O)[O-])cc3)o2)C(=O)NCCCN(C)C)cc1 [MLS001180408]
EBOV [5]
  Curve Class (EBOV): 4
MARV; read-out: IC-50 (MARV)
  IC50: 12.5 µM

## OC(CN1CCCCC1)Cn1c2ccc(Cl)cc2c2cc(Cl)ccc21 (stereo not drawn) [MLS001181479]
EBOV [5]
  Curve Class (EBOV): 4
MARV
  Curve class (MARV): 1.2
MARV; read-out: IC-50 (MARV)
  IC50: 25.6 µM

## Cc1cc(Cl)cc(C)c1OCCn1ccnc1 [MLS001196083]
EBOV [5]; read-out: IC-50 (EBOV)
  IC50: 6.19 µM
MARV; read-out: IC-50 (MARV)
  IC50: 2.06 µM

## CN(C)CCCNC(=S)N1CCN(c2nc(-c3ccccc3)cs2)CC1 [MLS001207131]
EBOV [5]
  Curve Class (EBOV): 1.3
EBOV [5]; read-out: IC-50 (EBOV)
  IC50: 25.2 µM
MARV
  Curve class (MARV): 1.2
MARV; read-out: IC-50 (MARV)
  IC50: 25.3 µM

## COc1ccc(Nc2cc(C)nc3ccc(OC)cc23)cc1 [MLS001209453]
EBOV [5]
  Curve Class (EBOV): 1.3
EBOV [5]; read-out: IC-50 (EBOV)
  IC50: 3.4 µM
MARV
  Curve class (MARV): 1.2
MARV; read-out: IC-50 (MARV)
  IC50: 12.5 µM

## Cc1ccccc1NC(=O)CSc1ccc(-c2ccccn2)nn1 [MLS001237534]
EBOV [5]
  Curve Class (EBOV): 4
MARV; read-out: IC-50 (MARV)
  IC50: 24.8 µM

## CN(C)CCCN(C(=O)c1ccc2ccccc2c1)c1nc2cc3c(cc2s1)OCO3.Cl [MLS001239325]
EBOV [5]
  Curve Class (EBOV): 1.7
EBOV [5]; read-out: IC-50 (EBOV)
  IC50: 1.55 µM
MARV
  Curve class (MARV): 1.3
MARV; read-out: IC-50 (MARV)
  IC50: 13.3 µM

## CCOC(=O)N1CCN(S(=O)(=O)c2ccc(C(=O)N(CCCN(C)C)c3nc4c(C)c(C)ccc4s3)cc2)CC1.Cl [MLS001239358]
EBOV [5]
  Curve Class (EBOV): 1.6
EBOV [5]; read-out: IC-50 (EBOV)
  IC50: 0.609 µM
MARV; read-out: IC-50 (MARV)
  IC50: 13 µM

## C=C1C(=O)c2sccc2C(c2ccc(OC)c(OC)c2)C1COC(C)=O (stereo not drawn) [MLS002702500]
EBOV [5]; read-out: IC-50 (EBOV)
  IC50: 5.93 µM
MARV
  Curve class (MARV): 1.3
MARV; read-out: IC-50 (MARV)
  IC50: 2.06 µM
